{
  "source": "patent US10683288B2",
  "about": "“Epothilone B and dictyostatin analogs, their preparation and use” (The Trustees of Columbia University in the City of New York, priority 2015, dated 2020)",
  "key": {"PC3 (prostate) [1]": {"tested_on": "PC3 (prostate)", "experiment": "cell growth inhibition, dictyostatin analogs, PC3", "assay_type": "cell-based", "settings": "for GI50: read-out: GI50 PC3", "protocol": "(§1) The C(6)- and C(12)-(4-azidobutyl) analogs 1 and 2 as well as triazole 26 and amide 27 were assayed for cell growth inhibition against four cell lines (PC3 (prostate), 1A9 (ovarian), A549 (lung), and DLD1 (colon)) alongside reference samples of synthetic dictyostatin and paclitaxel (Table 1a)."}, "1A9 (ovarian)": {"tested_on": "1A9 (ovarian)", "experiment": "cell growth inhibition, dictyostatin analogs, 1A9", "assay_type": "cell-based", "settings": "for GI50: read-out: GI50 1A9", "protocol": "as §1"}, "A549 (lung)": {"tested_on": "A549 (lung)", "experiment": "cell growth inhibition, dictyostatin analogs, A549", "assay_type": "cell-based", "settings": "for GI50: Homo sapiens", "protocol": "as §1"}, "DLD1 (colon)": {"tested_on": "DLD1 (colon)", "experiment": "cell growth inhibition, dictyostatin analogs, DLD1", "assay_type": "cell-based", "settings": "for GI50: Homo sapiens", "protocol": "as §1"}, "[2]": {"tested_on": "PC3 (prostate), 1A9 (ovarian), A549 (lung), and DLD1 (colon) cell lines", "experiment": "cell growth inhibition, dictyostatin analogs, summary over four cell lines", "assay_type": "cell-based", "protocol": "as §1"}, "PC3 (prostate) [3]": {"tested_on": "PC3 (prostate)", "experiment": "cell growth inhibition, Epo B analogs, PC3", "assay_type": "cell-based", "settings": "read-out: IC50 PC3 (Prostate)", "protocol": "(§2) Compounds 19, 20 and 21 were assayed for cell growth inhibition against four cell lines (PC3 (prostate), MCF7 breast), H522 (lung), and OVCAR8 (ovarian)) alongside reference samples of Epo A, ixabepilone and taxol (Table 1)."}, "MCF7 (breast)": {"tested_on": "MCF7 (breast)", "experiment": "cell growth inhibition, Epo B analogs, MCF7", "assay_type": "cell-based", "protocol": "as §2"}, "H522 (lung)": {"tested_on": "H522 (lung)", "experiment": "cell growth inhibition, Epo B analogs, H522", "assay_type": "cell-based", "protocol": "as §2"}, "OVCAR8 (ovarian)": {"tested_on": "OVCAR8 (ovarian)", "experiment": "cell growth inhibition, Epo B analogs, OVCAR8", "assay_type": "cell-based", "protocol": "as §2"}, "[4]": {"settings": "literature; cited from earlier work"}, "[5]": {"settings": "Homo sapiens, MCF7, read-out: IC50 MCF7 (Breast)"}, "[6]": {"settings": "Homo sapiens, NCI-H522, read-out: IC50 H522 (Lung)"}, "[7]": {"settings": "Homo sapiens, OVCAR-8, read-out: IC50 OVCAR8 (Ovarian)"}, "[8]": {"settings": "Homo sapiens, MCF7 (Breast) cell line, read-out: IC50 MCF7 (Breast)"}, "[9]": {"settings": "Homo sapiens, NCI-H522, H522 (Lung) cell line, read-out: IC50 H522 (Lung)"}, "[10]": {"settings": "Homo sapiens, OVCAR-8, OVCAR8 (Ovarian) cell line, read-out: IC50 OVCAR8 (Ovarian)"}},
  "note": "pIC50: −log10 of the molar value. Like-named read-outs stand apart in the source and are kept apart here.",
  "data": [
    {"molecule": "C=C/C=C\\[C@H](C)[C@@H]1OC(=O)/C=C\\C=C\\[C@@H](CCCCN=[N+]=[N-])[C@@H](O)C[C@H](O)/C=C\\[C@H](C)[C@H](O)[C@@H](C)C[C@@H](C)CC[C@@H](O)[C@@H]1C", "note": "[C(6) analog 1]", "values": [
      {"measurement": "GI50", "setting": "PC3 (prostate) [1]; Prostate cell", "value": 1.9, "unit": "nM"},
      {"measurement": "GI50", "setting": "1A9 (ovarian)", "value": 2.2, "unit": "nM"},
      {"measurement": "GI50", "setting": "A549 (lung); A549, read-out: GI50 A549", "value": 1.1, "unit": "nM"},
      {"measurement": "GI50", "setting": "DLD1 (colon); DLD-1, read-out: GI50 DLD1", "value": 1.1, "unit": "nM"},
      {"measurement": "GI50 values relative to dictyostatin", "setting": "[2]; four cell lines", "value": "only slightly attenuated relative to dictyostatin"}
    ]},
    {"molecule": "C/C(=C\\c1csc(C)n1)[C@@H]1C[C@@H]2OC2(C)CCC[C@H](C)[C@H](O)[C@@H](CCCCN=[N+]=[N-])C(=O)C(C)(C)[C@@H](O)CC(=O)O1", "note": "(stereo partly drawn) [Compound 19]", "values": [
      {"measurement": "pIC50", "setting": "PC3 (prostate) [3]; Prostate cell", "value": 8.68},
      {"measurement": "pIC50", "setting": "MCF7 (breast); [5]", "value": "> 9.19"},
      {"measurement": "pIC50", "setting": "H522 (lung); [6]", "value": 9.40},
      {"measurement": "pIC50", "setting": "OVCAR8 (ovarian); [7]", "value": 9.00}
    ]},
    {"molecule": "CC(=O)NCCCC[C@H]1C(=O)C(C)(C)[C@@H](O)CC(=O)O[C@H](/C(C)=C/c2csc(C)n2)C[C@@H]2OC2(C)CCC[C@H](C)[C@@H]1O", "note": "(stereo partly drawn) [Compound 21]", "values": [
      {"measurement": "pIC50", "setting": "PC3 (prostate) [3]; Prostate cell", "value": 9.00},
      {"measurement": "pIC50", "setting": "MCF7 (breast); [5]", "value": "≥ 9.19"},
      {"measurement": "pIC50", "setting": "H522 (lung); [6]", "value": 9.22},
      {"measurement": "pIC50", "setting": "OVCAR8 (ovarian); [7]", "value": 8.66}
    ]},
    {"molecule": "C/C(=C\\c1csc(C)n1)[C@@H]1C[C@@H]2O[C@@H]2CCC[C@H](C)[C@H](O)[C@@H](C)C(=O)C(C)(C)[C@@H](O)CC(=O)O1", "note": "[Epo A, epothilone A]", "values": [
      {"measurement": "pIC50", "setting": "PC3 (prostate) [3]; PC3 (Prostate) cell line", "value": 8.15},
      {"measurement": "pIC50", "setting": "MCF7 (breast); MCF7 (Breast) cell line, read-out: IC50 MCF7 (Breast)", "value": 8.15},
      {"measurement": "pIC50", "setting": "H522 (lung); H522 (Lung) cell line, read-out: IC50 H522 (Lung)", "value": 8.26},
      {"measurement": "pIC50", "setting": "OVCAR8 (ovarian); OVCAR8 (Ovarian) cell line, read-out: IC50 OVCAR8 (Ovarian)", "value": 8.22}
    ]},
    {"molecule": "C/C(=C\\c1csc(C)n1)[C@@H]1C[C@@H]2O[C@]2(C)CCC[C@H](C)[C@H](O)[C@@H](C)C(=O)C(C)(C)[C@@H](O)CC(=O)N1", "note": "[Ixabepilone]", "values": [
      {"measurement": "pIC50", "setting": "PC3 (prostate) [3]; PC3 (Prostate) cell line", "value": 8.40},
      {"measurement": "pIC50", "setting": "MCF7 (breast); [8]", "value": 8.70},
      {"measurement": "pIC50", "setting": "H522 (lung); [9]", "value": 8.60},
      {"measurement": "pIC50", "setting": "OVCAR8 (ovarian); [10]", "value": 8.48}
    ]},
    {"molecule": "CC(=O)O[C@H]1C(=O)[C@@]2(C)[C@H]([C@H](OC(=O)c3ccccc3)[C@]3(O)C[C@H](OC(=O)[C@H](O)[C@@H](NC(=O)c4ccccc4)c4ccccc4)C(C)=C1C3(C)C)[C@]1(OC(C)=O)CO[C@@H]1C[C@@H]2O", "note": "[Taxol, paclitaxel, reference compound]", "values": [
      {"measurement": "pIC50", "setting": "PC3 (prostate) [3]; PC3 (Prostate) cell line", "value": 8.22},
      {"measurement": "pIC50", "setting": "MCF7 (breast); [8]", "value": "> 9.89"},
      {"measurement": "pIC50", "setting": "H522 (lung); [9]", "value": 8.59},
      {"measurement": "pIC50", "setting": "OVCAR8 (ovarian); [10]", "value": 8.72},
      {"measurement": "GI50", "setting": "PC3 (prostate) [1]; PC3 (Prostate) cell line", "value": 1.9, "unit": "nM"},
      {"measurement": "GI50", "setting": "1A9 (ovarian); 1A9 (ovarian) cell line", "value": 0.4, "unit": "nM"},
      {"measurement": "GI50", "setting": "A549 (lung); A549 (lung) cell line, read-out: GI50 A549", "value": 1.2, "unit": "nM"},
      {"measurement": "GI50", "setting": "DLD1 (colon); DLD-1, DLD1 (colon) cell line, read-out: GI50 DLD1", "value": 15, "unit": "nM"}
    ]},
    {"molecule": "C=C/C=C\\[C@H](C)[C@@H]1OC(=O)/C=C\\C=C\\[C@@H](CCCCNC(C)=O)[C@@H](O)C[C@H](O)/C=C\\[C@H](C)[C@H](O)[C@@H](C)C[C@@H](C)CC[C@@H](O)[C@@H]1C", "note": "[amide 27]", "values": [
      {"measurement": "GI50", "setting": "PC3 (prostate) [1]; Prostate cell", "value": 50, "unit": "nM"},
      {"measurement": "GI50", "setting": "1A9 (ovarian)", "value": 30, "unit": "nM"},
      {"measurement": "GI50", "setting": "A549 (lung); A549, read-out: GI50 A549", "value": 22, "unit": "nM"},
      {"measurement": "GI50", "setting": "DLD1 (colon); DLD-1, read-out: GI50 DLD1", "value": 32, "unit": "nM"},
      {"measurement": "reduction in potency relative to azide 1", "setting": "[2]; against all four cell lines", "value": "1-2 orders of magnitude"}
    ]},
    {"molecule": "C=C/C=C\\[C@H](C)[C@@H]1OC(=O)/C=C\\C=C\\[C@@H](C)[C@@H](O)C[C@H](O)/C=C\\[C@H](C)[C@H](O)[C@@H](C)C[C@@H](C)CC[C@@H](O)[C@@H]1C", "note": "[dictyostatin]", "values": [
      {"measurement": "GI50", "setting": "PC3 (prostate) [1]; Prostate cell", "value": 1.3, "unit": "nM"},
      {"measurement": "GI50", "setting": "1A9 (ovarian)", "value": 0.8, "unit": "nM"},
      {"measurement": "GI50", "setting": "A549 (lung); A549, read-out: GI50 A549", "value": 0.3, "unit": "nM"},
      {"measurement": "GI50", "setting": "DLD1 (colon); DLD-1, read-out: GI50 DLD1", "value": 0.4, "unit": "nM"}
    ]},
    {"molecule": "C=C/C=C\\[C@H](C)[C@@H]1OC(=O)/C=C\\C=C\\[C@@H](CCCCn2nnc3c2CC[C@@H]2[C@@H](CO)[C@@H]2CC3)[C@@H](O)C[C@H](O)/C=C\\[C@H](C)[C@H](O)[C@@H](C)C[C@@H](C)CC[C@@H](O)[C@@H]1C", "note": "[triazole 26]", "values": [
      {"measurement": "activity relative to azide 1", "setting": "PC3 (prostate) [1]; PC3 cell line", "value": "only slightly diminished from that of azide 1"},
      {"measurement": "GI50", "setting": "PC3 (prostate) [1]; Prostate cell", "value": 4.8, "unit": "nM"},
      {"measurement": "activity relative to azide 1", "setting": "1A9 (ovarian); 1A9 cell line", "value": "only slightly diminished from that of azide 1"},
      {"measurement": "GI50", "setting": "1A9 (ovarian)", "value": 8.4, "unit": "nM"},
      {"measurement": "activity relative to azide 1", "setting": "A549 (lung); A549 cell line", "value": "more substantial (though not catastrophic) reductions in potency"},
      {"measurement": "GI50", "setting": "A549 (lung); A549, read-out: GI50 A549", "value": 25, "unit": "nM"},
      {"measurement": "activity relative to azide 1", "setting": "DLD1 (colon); DLD1 cell line", "value": "more substantial (though not catastrophic) reductions in potency"},
      {"measurement": "GI50", "setting": "DLD1 (colon); DLD-1, read-out: GI50 DLD1", "value": 13, "unit": "nM"}
    ]},
    {"molecule": "C(6)-epi dictyostatin", "values": [
      {"measurement": "potency relative to the natural product dictyostatin, in words", "setting": "[4]", "value": "as potent as the natural product"}
    ]},
    {"molecule": "C(6)-normethyl dictyostatin", "values": [
      {"measurement": "loss of potency relative to the natural product dictyostatin", "setting": "[4]", "value": "≤ 1 order of magnitude"}
    ]}
  ]
}
